According to ChEMBL document CHEMBL1132938, “Novel synthetic oleanane and ursane triterpenoids with various enone functionalities in ring A as inhibitors of nitric oxide production in mouse macrophages” (J Med Chem, 2000):

Organism: Mus musculus
Test: Percent inhibition of nitric oxide production induced by IFN-uM concentration
Format: functional
Parameters: concentration or dose not given beside the values

Row | SMILES | Inhibition [%]
1 | CC1(C)CCC2(C(=O)O)CC[C@]3(C)C(=CC[C@@H]4[C@@]5(C)CC[C@@H](Cl)C(C)(C)[C@@H]5CC[C@]43C)C2C1 (stereo partly specified) | 0
2 | CC(=O)OC[C@]12CCC(C)(C)CC1C(O)[C@](C)([C@]1(C)CC[C@H]3C(C)(C)[C@@H](OC(C)=O)CC[C@]3(C)[C@H]1CCO)CC2 (stereo partly specified) | 12
3 | CC(=O)OCC12CCC(C)(C)CC1[C@H]1[C@H](OC(C)=O)C[C@@H]3[C@@]4(C)CC[C@H](OC(C)=O)C(C)(C)[C@@H]4CC[C@@]3(C)[C@]1(C)CC2 (stereo partly specified) | 0
4 | CC1(C)CC[C@]2(C(=O)O)CC[C@@](C)([C@]3(C)CC[C@H]4C(C)(C)C(=O)CC[C@]4(C)[C@H]3CC(=O)O)C(=O)C2C1 (stereo partly specified) | 28
5 | CC(=O)OCC12CCC(C)(C)CC1C1=CC[C@@H]3[C@@]4(C)CC[C@H](OC(C)=O)C(C)(C)[C@@H]4CC[C@@]3(C)[C@]1(C)CC2 (stereo partly specified) | 4
6 | COC(=O)C12CCC(C)(C)CC1C1=CC[C@@H]3[C@@]4(C)CC[C@H](OC(C)=O)C(C)(C)[C@@H]4CC[C@@]3(C)[C@]1(C)CC2 (stereo partly specified) | 10
7 | CC1(C)CCC2(CO)CC[C@]3(C)C(=CC[C@@H]4[C@@]5(C)CC[C@H](O)C(C)(C)[C@@H]5CC[C@]43C)C2C1 (stereo partly specified) | 0
8 | COC(=O)C12CCC(C)(C)CC1C1=CC[C@@H]3[C@@]4(C)CCC(=O)C(C)(C)[C@@H]4CC[C@@]3(C)[C@]1(C)CC2 (stereo partly specified) | 24
9 | CC1(C)CCC2(CO)CC[C@]3(C)[C@@H](C2C1)[C@H](O)C[C@@H]1[C@@]2(C)CC[C@H](O)C(C)(C)[C@@H]2CC[C@]13C (stereo partly specified) | 20
10 | CC1(C)CCC2(CO)CC[C@]3(C)[C@@H](C2C1)[C@@H](O)C[C@@H]1[C@@]2(C)CC[C@H](O)C(C)(C)[C@@H]2CC[C@]13C (stereo partly specified) | 48
11 | C=C(C)[C@@H]1CC[C@]2(C)[C@H](CC=C3C4[C@@H](C)[C@H](C)CC[C@]4(C(=O)O)CC[C@]32C)[C@@]1(C)CCC#N (stereo partly specified) | 39
12 | COC(=O)C12CC[C@@H](C)[C@H](C)C1C1=CC[C@@H]3[C@@]4(C)CCC(=O)C(C)(C)[C@@H]4CC[C@@]3(C)[C@]1(C)CC2 (stereo partly specified) | 16
13 | COC(=O)C12CCC(C)(C)CC1C1=CC[C@@H]3[C@@]4(C)CCC(=O)NC(C)(C)[C@@H]4CC[C@@]3(C)[C@]1(C)CC2 (stereo partly specified) | 0
14 | COC(=O)C12CCC(C)(C)CC1[C@H]1C(=O)C[C@@H]3[C@@]4(C)CCC(=O)C(C)(C)[C@@H]4CC[C@@]3(C)[C@]1(C)CC2 (stereo partly specified) | 3
15 | C[C@@H]1CC[C@]2(C(=O)O)CC[C@]3(C)C(=CC[C@@H]4[C@@]5(C)C[C@@H](Cl)C(=O)C(C)(C)[C@@H]5CC[C@]43C)C2[C@H]1C (stereo partly specified) | 55
16 | C[C@@H]1CCC2(C(=O)O)CC[C@]3(C)C(=CC[C@@H]4[C@@]5(C)CC[C@@H](O)C(C)(C)[C@@H]5CC[C@]43C)C2[C@H]1C (stereo partly specified) | 48
17 | CC1(C)CC[C@@]23CC[C@]4(C)[C@](OC2=O)(C(=O)C[C@@H]2[C@@]5(C)CCC(=O)C(C)(C)[C@@H]5CC[C@]24C)C3C1 (stereo partly specified) | 0
18 | COC(=O)C12CCC(C)(C)CC1C1=CC[C@@H]3[C@@]4(C)CC=CC(C)(C)[C@@H]4CC[C@@]3(C)[C@]1(C)CC2 (stereo partly specified) | 3
19 | CC1(C)CC[C@@]23CC[C@]4(C)[C@@](OC2O)(C3C1)[C@@H](O)C[C@@H]1[C@@]2(C)CC[C@H](O)C(C)(C)[C@@H]2CC[C@]14C (stereo partly specified) | 21

Row | SMILES | Inhibition [%]
20 | COC(=O)C12CCC(C)(C)CC1[C@H]1C(=O)C[C@@H]3[C@@]4(C)CC[C@H](O)C(C)(C)[C@@H]4CC[C@@]3(C)[C@]1(C)CC2 (stereo partly specified) | 0
21 | C[C@@H]1CCC2(C(=O)O)CC[C@]3(C)C(=CC[C@@H]4[C@@]5(C)CCC(=O)C(C)(C)[C@@H]5CC[C@]43C)C2[C@H]1C (stereo partly specified) | 22
22 | CC1(C)CC[C@]2(C(=O)O)CC[C@]3(C)C(=CC[C@@H]4[C@@]5(C)C=CC(=O)C(C)(C)[C@@H]5CC[C@]43C)C2C1 (stereo partly specified) | 85
23 | CC(=O)OC[C@]12CCC(C)(C)CC1C(=O)[C@](C)([C@]1(C)CC[C@H]3C(C)(C)[C@@H](OC(C)=O)CC[C@]3(C)[C@H]1CC(=O)O)CC2 (stereo partly specified) | 52
24 | CC1(C)CC[C@@]23CC[C@]4(C)[C@@](OC2=O)(C3C1)[C@@H](Br)C[C@@H]1[C@@]2(C)CCC(=O)C(C)(C)[C@@H]2CC[C@]14C (stereo partly specified) | 4
25 | CC(=O)OCC12CCC(C)(C)CC1[C@H]1[C@@H](O)C[C@@H]3[C@@]4(C)CC[C@H](OC(C)=O)C(C)(C)[C@@H]4CC[C@@]3(C)[C@]1(C)CC2 (stereo partly specified) | 0
26 | C=C(C)[C@@H]1CC[C@]2(C)[C@H](CC=C3C4CC(C)(C)CC[C@]4(C(=O)O)CC[C@]32C)[C@@]1(C)CCC=O (stereo partly specified) | 22
27 | C=C(C)[C@@H]1CC[C@]2(C)[C@H](CC=C3C4CC(C)(C)CC[C@]4(C(=O)O)CC[C@]32C)[C@@]1(C)CCC#N (stereo partly specified) | 33
28 | C=C(C)[C@@H]1CC[C@]2(C)[C@H](CC=C3C4[C@@H](C)[C@H](C)CC[C@]4(C(=O)O)CC[C@]32C)[C@@]1(C)CCC(=O)O (stereo partly specified) | 10
29 | C=C(C)[C@@H]1CC[C@]2(C)[C@H](CC=C3C4[C@@H](C)[C@H](C)CC[C@]4(C(=O)O)CC[C@]32C)[C@@]1(C)CCC=O (stereo partly specified) | 55
30 | CC1(C)CCC2(C(=O)O)CC[C@]3(C)C(=CC[C@@H]4[C@@]5(C)CCC(=O)NC(C)(C)[C@@H]5CC[C@]43C)C2C1 (stereo partly specified) | 51
31 | COC(=O)C12CCC(C)(C)CC1[C@H]1C(=O)C[C@@H]3[C@@]4(C)CC[C@H](OC(C)=O)C(C)(C)[C@@H]4CC[C@@]3(C)[C@]1(C)CC2 (stereo partly specified) | 0
32 | COC(=O)C12CC[C@@H](C)[C@H](C)C1C1=CC[C@@H]3[C@@]4(C)CC[C@H](O)C(C)(C)[C@@H]4CC[C@@]3(C)[C@]1(C)CC2 (stereo partly specified) | 0
33 | CC1(C)CCC2(C=O)CC[C@]3(C)C(=CC[C@@H]4[C@@]5(C)CCC(=O)C(C)(C)[C@@H]5CC[C@]43C)C2C1 (stereo partly specified) | 11
34 | CC1(C)CCC2(CO)CC[C@]3(C)[C@@](O)(C2C1)[C@@H](O)C[C@@H]1[C@@]2(C)CC[C@H](O)C(C)(C)[C@@H]2CC[C@]13C (stereo partly specified) | 22
35 | CC(=O)O[C@H]1CC[C@]2(C)[C@H]3CC=C4C5[C@@H](C)[C@H](C)CCC5(C(=O)O)CC[C@@]4(C)[C@]3(C)CC[C@H]2C1(C)C (stereo partly specified) | 0
36 | C[C@@H]1CCC2(C=O)CC[C@]3(C)C(=CC[C@@H]4[C@@]5(C)CCC(=O)C(C)(C)[C@@H]5CC[C@]43C)C2[C@H]1C (stereo partly specified) | 21
37 | CC1(C)CCC2(C(=O)O)CC[C@]3(C)C(=CC[C@@H]4[C@@]5(C)CC=CC(C)(C)[C@@H]5CC[C@]43C)C2C1 (stereo partly specified) | 0
38 | CC(C)C1=C2CC[C@]3(C)[C@H](CC=C4C5CC(C)(C)CCC5(C(=O)O)CC[C@]43C)[C@@]2(C)CC1 (stereo partly specified) | 0

Row | SMILES | Inhibition [%]
39 | CC(=O)OCC12CC[C@@H](C)[C@H](C)C1C1=CC[C@@H]3[C@@]4(C)CC[C@H](OC(C)=O)C(C)(C)[C@@H]4CC[C@@]3(C)[C@]1(C)CC2 (stereo partly specified) | 0
40 | COC(=O)C12CCC(C)(C)CC1[C@H]1[C@H](O)C[C@@H]3[C@@]4(C)CC[C@H](OC(C)=O)C(C)(C)[C@@H]4CC[C@@]3(C)[C@]1(C)CC2 (stereo partly specified) | 0
41 | CC1(C)CCC2(C(=O)O)CC[C@]3(C)C(=C2C1)C=C[C@@H]1[C@@]2(C)CCC(=O)C(C)(C)[C@@H]2CC[C@]13C (stereo partly specified) | 47
42 | COC(=O)C12CCC(C)(C)CC1[C@]13O[C@H]1C[C@@H]1[C@@]4(C)CC[C@H](OC(C)=O)C(C)(C)[C@@H]4CC[C@@]1(C)[C@]3(C)CC2 (stereo partly specified) | 0
43 | C=C(C)[C@@H]1CC[C@]2(C)[C@H](CC=C3C4CC(C)(C)CC[C@]4(C(=O)OC)CC[C@]32C)[C@@]1(C)CCC#N (stereo partly specified) | 21
44 | COC(=O)C12CCC(C)(C)CC1[C@H]1[C@@H](O)C[C@@H]3[C@@]4(C)CC[C@H](OC(C)=O)C(C)(C)[C@@H]4CC[C@@]3(C)[C@]1(C)CC2 (stereo partly specified) | 0
45 | COC(=O)C12CC[C@@H](C)[C@H](C)C1C1=CC[C@@H]3[C@@]4(C)CC[C@H](OC(C)=O)C(C)(C)[C@@H]4CC[C@@]3(C)[C@]1(C)CC2 (stereo partly specified) | 15
46 | COC(=O)C12CCC(C)(C)CC1C1=CC[C@@H]3[C@@]4(C)CC[C@@H](Cl)C(C)(C)[C@@H]4CC[C@@]3(C)[C@]1(C)CC2 (stereo partly specified) | 2
47 | CC1(C)CCC2(C(=O)O)CC[C@]3(C)[C@H](C(=O)C[C@@H]4[C@@]5(C)CCC(=O)C(C)(C)[C@@H]5CC[C@]43C)C2C1 (stereo partly specified) | 37
48 | COC(=O)C12CC[C@@H](C)[C@H](C)C1C1=CC[C@@H]3[C@@]4(C)C=CC(=O)C(C)(C)[C@@H]4CC[C@@]3(C)[C@]1(C)CC2 (stereo partly specified) | 0
49 | CC1(C)CCC2(C(=O)O)CC[C@]3(C)C(=CC[C@@H]4[C@@]5(C)CC[C@@H](O)C(C)(C)[C@@H]5CC[C@]43C)C2C1 (stereo partly specified) | 18
50 | CC1(C)CCC2(C=O)CC[C@]3(C)[C@H](C(=O)C[C@@H]4[C@@]5(C)CCC(=O)C(C)(C)[C@@H]5CC[C@]43C)C2C1 (stereo partly specified) | 38
51 | C[C@@H]1CCC2(CO)CC[C@]3(C)C(=CC[C@@H]4[C@@]5(C)CC[C@H](O)C(C)(C)[C@@H]5CC[C@]43C)C2[C@H]1C (stereo partly specified) | 8
52 | CC(=O)O[C@H]1CC[C@]2(C)[C@H]3CC=C4[C@@H]5CC(C)(C)CC[C@]5(C(=O)O)CC[C@@]4(C)[C@]3(C)CC[C@H]2C1(C)C [ACETYL OLEANOLIC ACID] | 0
53 | C[C@]12CCC(=O)C=C1CC[C@@H]1[C@@H]2[C@@H](O)C[C@@]2(C)[C@H]1CC[C@]2(O)C(=O)CO [HYDROCORTISONE] | 80
54 | COC(=O)[C@]12CCC(C)(C)C[C@H]1C1=CC[C@@H]3[C@@]4(C)CC[C@H](O)C(C)(C)[C@@H]4CC[C@@]3(C)[C@]1(C)CC2 [METHYL OLEANOLATE] | 0
55 | CC1(C)CC[C@]2(C(=O)O)CC[C@]3(C)C(=CC[C@@H]4[C@@]5(C)CC[C@H](O)C(C)(C)[C@@H]5CC[C@]43C)[C@@H]2C1 [OLEANOLIC_ACID] | 38
56 | CC1(C)CC[C@]2(C(=O)O)CC[C@]3(C)C(=CC[C@@H]4[C@@]5(C)CCC(=O)C(C)(C)[C@@H]5CC[C@]43C)[C@@H]2C1 [OLEANONIC ACID] | 16
